Measurements from ChEMBL document CHEMBL1201862, “PubChem BioAssay data set” (2004).
Calls of active or inactive are those of the source.

Key:
[1] = molecular target: Beta-2 adrenergic receptor (Homo sapiens, UniProt P07550); experiment: ADRB2 activation measured by internalization – cell-based, FAP fluorogen, flow cytometry, cherry pick 1, dose response (AID 588763); format: functional
[2] = molecular target: Dual specificity tyrosine-phosphorylation-regulated kinase 1A (Rattus norvegicus, UniProt Q63470); format: biochemical, Homo sapiens
[3] = viability loss in HeLa cells – cytotoxicity control for MgcRacGAP inhibitor project, dose response (AID 624300); format: functional
[4] = molecular target: T1, Rac GTPase-activating protein 1 (Homo sapiens, UniProt Q9H0H5); experiment: blockers of MgcRacGAP-driven Rac1 GTP hydrolysis – biochemical, ADP Hunter fluorescence, primary and confirmatory, confirmation (AID 624330); format: functional
T1 sequence (Q9H0H5 whole entry): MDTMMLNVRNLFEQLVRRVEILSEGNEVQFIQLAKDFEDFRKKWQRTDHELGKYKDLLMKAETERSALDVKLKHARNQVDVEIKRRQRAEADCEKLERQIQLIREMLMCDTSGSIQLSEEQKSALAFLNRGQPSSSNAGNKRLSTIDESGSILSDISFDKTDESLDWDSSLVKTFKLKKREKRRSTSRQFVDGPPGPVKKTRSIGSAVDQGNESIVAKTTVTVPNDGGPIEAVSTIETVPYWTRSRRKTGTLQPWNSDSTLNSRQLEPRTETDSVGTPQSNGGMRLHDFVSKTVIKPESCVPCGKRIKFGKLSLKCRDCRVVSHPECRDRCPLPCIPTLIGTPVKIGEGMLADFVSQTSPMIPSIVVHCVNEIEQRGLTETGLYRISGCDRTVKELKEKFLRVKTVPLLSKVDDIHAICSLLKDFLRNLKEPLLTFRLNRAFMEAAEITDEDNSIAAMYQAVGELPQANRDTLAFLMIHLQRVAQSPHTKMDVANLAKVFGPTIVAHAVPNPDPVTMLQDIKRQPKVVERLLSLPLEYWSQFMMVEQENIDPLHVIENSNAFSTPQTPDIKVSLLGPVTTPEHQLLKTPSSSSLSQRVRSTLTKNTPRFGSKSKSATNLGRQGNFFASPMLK

[5] = molecular target: T2, Adenosylmethionine-8-amino-7-oxononanoate aminotransferase (Mycobacterium tuberculosis, UniProt P9WQ81); experiment: Mycobacterium tuberculosis BioA enzyme inhibitor Measured in Biochemical System Using Plate Reader - 2163-02_Inhibitor_Dose_CherryPick_Activity.; format: functional, Mycobacterium tuberculosis UT205
T2 sequence (P9WQ81 whole entry): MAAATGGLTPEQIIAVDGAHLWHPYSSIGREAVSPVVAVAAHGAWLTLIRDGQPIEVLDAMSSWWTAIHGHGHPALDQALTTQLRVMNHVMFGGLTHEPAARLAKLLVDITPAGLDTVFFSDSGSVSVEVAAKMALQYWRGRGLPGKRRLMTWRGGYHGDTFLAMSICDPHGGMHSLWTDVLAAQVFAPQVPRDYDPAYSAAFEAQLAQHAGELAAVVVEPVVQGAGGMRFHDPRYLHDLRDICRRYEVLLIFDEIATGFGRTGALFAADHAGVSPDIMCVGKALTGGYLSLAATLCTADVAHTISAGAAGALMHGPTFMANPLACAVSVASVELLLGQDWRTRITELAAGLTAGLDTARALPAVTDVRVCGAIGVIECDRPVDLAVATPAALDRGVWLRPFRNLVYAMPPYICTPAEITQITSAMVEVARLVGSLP

[6] = molecular target: T3, Probable nicotinate-nucleotide adenylyltransferase (Staphylococcus aureus (strain N315), UniProt P65502); format: functional, Staphylococcus aureus subsp. aureus N315;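 as to IC50 Mean: confirmatory dose-response retesting of NadD inhibitor hits first found in an ultra-high-throughput screen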
[7] = molecular target: T3, Probable nicotinate-nucleotide adenylyltransferase; format: functional, Staphylococcus aureus subsp. aureus N315; details: read-out: IC50_Mean
[8] = molecular target: T4, DNA repair protein RAD52 homolog (Homo sapiens, UniProt P43351); format: functional, biochemical
T4 sequence (P43351 whole entry): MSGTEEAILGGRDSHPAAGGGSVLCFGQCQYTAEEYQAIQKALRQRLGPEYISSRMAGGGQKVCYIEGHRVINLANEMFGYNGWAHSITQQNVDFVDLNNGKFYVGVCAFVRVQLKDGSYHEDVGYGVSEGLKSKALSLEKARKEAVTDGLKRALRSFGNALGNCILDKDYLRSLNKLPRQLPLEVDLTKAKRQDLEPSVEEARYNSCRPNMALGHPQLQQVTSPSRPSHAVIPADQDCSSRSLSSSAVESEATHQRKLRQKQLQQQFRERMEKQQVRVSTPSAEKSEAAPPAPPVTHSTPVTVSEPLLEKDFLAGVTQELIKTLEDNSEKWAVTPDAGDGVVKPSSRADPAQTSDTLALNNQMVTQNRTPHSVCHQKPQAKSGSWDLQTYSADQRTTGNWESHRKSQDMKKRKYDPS

[9] = molecular target: T5, Voltage-gated N-type calcium channel alpha-1B subunit/Amyloid beta A4 precursor protein-binding family A member 1 (Homo sapiens, UniProt Q00975+Q02410); format: protein assay
[10] = molecular target: T5, Voltage-gated N-type calcium channel alpha-1B subunit/Amyloid beta A4 precursor protein-binding family A member 1; format: protein assay; remark: listed apart in the source
H9c2 = experiment: cells; format: functional, cell-based; details: Rattus norvegicus, H9c2, Myocardium;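 also: confirmatory concentration-response retest of ultra-high-throughput screening hits for modulation of myocardial damage; cell death induced by hydrogen peroxide oxidative stress; compound pretreatment for 60 min then peroxide exposure for 2 h; potency is for protecting the cells against peroxide damage rather than for killing them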
Caspase-6 = molecular target: T6, Caspase-6 (Homo sapiens, UniProt P55212); experiment: inhibition of CASP6 peptide cleavage – biochemical, VEID-R110 fluorescence, cherry-pick, dose response (AID 720632)
T6 sequence (P55212 whole entry): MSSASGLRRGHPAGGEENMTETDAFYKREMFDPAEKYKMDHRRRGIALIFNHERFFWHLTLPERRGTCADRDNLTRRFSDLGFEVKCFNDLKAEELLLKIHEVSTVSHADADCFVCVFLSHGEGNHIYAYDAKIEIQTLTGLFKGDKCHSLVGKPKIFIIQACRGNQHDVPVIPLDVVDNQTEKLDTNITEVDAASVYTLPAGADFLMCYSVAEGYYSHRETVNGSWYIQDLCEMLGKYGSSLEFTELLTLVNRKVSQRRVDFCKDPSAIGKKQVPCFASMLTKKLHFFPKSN

[11] = HIV-1 AD8 envelope cell-cell fusion blockers – cherry-pick, dose response (AID 652062); format: functional, cell-based;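 also: luciferase signal from cell-cell fusion driven by HIV-1 clade B AD8 Env; potency is for inhibitors of fusion seen as a drop in luminescence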
[12] = Late stage assay provider results from the probe development effort to identify selective inhibitors of heat shock protein 90 (HSP90): Absorbance-based cell proliferation assay in SKBR3 cells.; format: functional; details: SK-BR-3
[13] = Late stage assay provider results from the probe development effort to identify selective inhibitors of heat shock protein 90 (HSP90): Absorbance-based cell proliferation assay in MCF7 cells.; format: functional
[14] = growth inhibition of yeast DHODH-expressing 3D7 parasites – SYBR Green, dry powder samples, dose response (AID 1159570); format: functional, cell-based;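 also: parasite growth measured after 72 hours of compound exposure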
[15] = P. falciparum Dd2 growth inhibitors, dose response, SYBR Green, cherry-picked samples (AID 1159567); format: functional, cell-based
[16] = Dd2 malaria parasite growth inhibition potency – SYBR Green, dry powder samples, dose response (AID 1159566); format: functional, cell-based;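 also: potency for growth inhibition with lower SYBR green DNA signal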
[17] = growth inhibition of PfATP4-mutant resistant parasites – NITD609-resistant line, SYBR Green, dry powder, dose response (AID 1159571); format: functional, cell-based;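 also: parasites synchronized at ring stage by sorbitol before testing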
[18] = toxicity to human hepatoma HepG2 cells – cell-based, cherry-picked samples, cytotoxicity control, dose response (AID 1159577); format: functional
[19] = Luminescence Cell-Based Dose Response HTS to Identify Inhibitors of 5'UTR Stem-Loop Driven Prion Protein mRNA Translation in H4 Neuroglioblastoma Cells. [Related pubchem assays: 1827 (Project Summary), 1813 (Primary HTS)]; format: functional
cells [20] = format: functional, cell-based
[21] = molecular target: T7, Trace amine-associated receptor 1 (Homo sapiens, UniProt Q96RJ0); experiment: Fluorescence-based cell-based high throughput dose response assay to identify agonists of the human trace amine associated receptor 1 (TAAR1).; format: functional
T7 sequence (Q96RJ0 whole entry): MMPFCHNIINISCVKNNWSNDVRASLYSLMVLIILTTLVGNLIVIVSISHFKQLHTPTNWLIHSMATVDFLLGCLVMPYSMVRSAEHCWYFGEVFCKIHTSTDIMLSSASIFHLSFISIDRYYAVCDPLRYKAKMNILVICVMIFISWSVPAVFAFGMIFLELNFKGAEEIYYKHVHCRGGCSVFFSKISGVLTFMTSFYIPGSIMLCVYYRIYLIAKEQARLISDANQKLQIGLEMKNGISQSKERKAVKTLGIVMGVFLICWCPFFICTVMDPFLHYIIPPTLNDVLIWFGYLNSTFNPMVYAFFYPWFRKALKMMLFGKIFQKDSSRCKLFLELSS

[22] = molecular target: T7, Trace amine-associated receptor 1; experiment: Counterscreen for agonists of the human trace amine associated receptor 1 (hTAAR1): Fluorescence-based cell-based high throughput dose response assay to identify hTAAR1 agonist that also desensitize TAAR1 receptor response.; format: functional
cells [23] = format: functional, cell-based; remark: listed apart in the source
[24] = A549 cell cytotoxicity, dose response, cytotoxicity control, plate reader, cherry-pick, antagonist series (AID 743412); format: functional, cell-based
[25] = toxicity toward HepG2 liver cells – cell-based, plate reader, cherry-pick, antagonist series, cytotoxicity control, dose response (AID 743416); format: functional
[26] = blockers of bursicon-stimulated LGR2 cAMP reporter – cell-based, HEK293, CRE-luciferase reporter, cherry pick, set 2, dose response (AID 743343); format: functional;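 also: transfected cells were stimulated with diluted bursicon conditioned medium after compound addition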
[27] = blockade of melanocortin 4 receptor signaling – cell-based, plate reader, cherry pick, counter-screen for LGR2 antagonist project, dose response (AID 743444); format: functional;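 also: transfected HEK 293 cells stimulated with alpha-MSH peptide; potency of inhibitors of the alpha-MSH evoked signal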

T3 sequence (P65502 whole entry): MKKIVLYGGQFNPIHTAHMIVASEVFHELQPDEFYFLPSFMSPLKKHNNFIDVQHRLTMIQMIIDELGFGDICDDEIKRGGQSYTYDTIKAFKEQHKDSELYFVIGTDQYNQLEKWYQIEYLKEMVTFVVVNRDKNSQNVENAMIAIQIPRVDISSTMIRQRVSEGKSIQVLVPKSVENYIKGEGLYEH
T5 sequence (Q00975 whole entry): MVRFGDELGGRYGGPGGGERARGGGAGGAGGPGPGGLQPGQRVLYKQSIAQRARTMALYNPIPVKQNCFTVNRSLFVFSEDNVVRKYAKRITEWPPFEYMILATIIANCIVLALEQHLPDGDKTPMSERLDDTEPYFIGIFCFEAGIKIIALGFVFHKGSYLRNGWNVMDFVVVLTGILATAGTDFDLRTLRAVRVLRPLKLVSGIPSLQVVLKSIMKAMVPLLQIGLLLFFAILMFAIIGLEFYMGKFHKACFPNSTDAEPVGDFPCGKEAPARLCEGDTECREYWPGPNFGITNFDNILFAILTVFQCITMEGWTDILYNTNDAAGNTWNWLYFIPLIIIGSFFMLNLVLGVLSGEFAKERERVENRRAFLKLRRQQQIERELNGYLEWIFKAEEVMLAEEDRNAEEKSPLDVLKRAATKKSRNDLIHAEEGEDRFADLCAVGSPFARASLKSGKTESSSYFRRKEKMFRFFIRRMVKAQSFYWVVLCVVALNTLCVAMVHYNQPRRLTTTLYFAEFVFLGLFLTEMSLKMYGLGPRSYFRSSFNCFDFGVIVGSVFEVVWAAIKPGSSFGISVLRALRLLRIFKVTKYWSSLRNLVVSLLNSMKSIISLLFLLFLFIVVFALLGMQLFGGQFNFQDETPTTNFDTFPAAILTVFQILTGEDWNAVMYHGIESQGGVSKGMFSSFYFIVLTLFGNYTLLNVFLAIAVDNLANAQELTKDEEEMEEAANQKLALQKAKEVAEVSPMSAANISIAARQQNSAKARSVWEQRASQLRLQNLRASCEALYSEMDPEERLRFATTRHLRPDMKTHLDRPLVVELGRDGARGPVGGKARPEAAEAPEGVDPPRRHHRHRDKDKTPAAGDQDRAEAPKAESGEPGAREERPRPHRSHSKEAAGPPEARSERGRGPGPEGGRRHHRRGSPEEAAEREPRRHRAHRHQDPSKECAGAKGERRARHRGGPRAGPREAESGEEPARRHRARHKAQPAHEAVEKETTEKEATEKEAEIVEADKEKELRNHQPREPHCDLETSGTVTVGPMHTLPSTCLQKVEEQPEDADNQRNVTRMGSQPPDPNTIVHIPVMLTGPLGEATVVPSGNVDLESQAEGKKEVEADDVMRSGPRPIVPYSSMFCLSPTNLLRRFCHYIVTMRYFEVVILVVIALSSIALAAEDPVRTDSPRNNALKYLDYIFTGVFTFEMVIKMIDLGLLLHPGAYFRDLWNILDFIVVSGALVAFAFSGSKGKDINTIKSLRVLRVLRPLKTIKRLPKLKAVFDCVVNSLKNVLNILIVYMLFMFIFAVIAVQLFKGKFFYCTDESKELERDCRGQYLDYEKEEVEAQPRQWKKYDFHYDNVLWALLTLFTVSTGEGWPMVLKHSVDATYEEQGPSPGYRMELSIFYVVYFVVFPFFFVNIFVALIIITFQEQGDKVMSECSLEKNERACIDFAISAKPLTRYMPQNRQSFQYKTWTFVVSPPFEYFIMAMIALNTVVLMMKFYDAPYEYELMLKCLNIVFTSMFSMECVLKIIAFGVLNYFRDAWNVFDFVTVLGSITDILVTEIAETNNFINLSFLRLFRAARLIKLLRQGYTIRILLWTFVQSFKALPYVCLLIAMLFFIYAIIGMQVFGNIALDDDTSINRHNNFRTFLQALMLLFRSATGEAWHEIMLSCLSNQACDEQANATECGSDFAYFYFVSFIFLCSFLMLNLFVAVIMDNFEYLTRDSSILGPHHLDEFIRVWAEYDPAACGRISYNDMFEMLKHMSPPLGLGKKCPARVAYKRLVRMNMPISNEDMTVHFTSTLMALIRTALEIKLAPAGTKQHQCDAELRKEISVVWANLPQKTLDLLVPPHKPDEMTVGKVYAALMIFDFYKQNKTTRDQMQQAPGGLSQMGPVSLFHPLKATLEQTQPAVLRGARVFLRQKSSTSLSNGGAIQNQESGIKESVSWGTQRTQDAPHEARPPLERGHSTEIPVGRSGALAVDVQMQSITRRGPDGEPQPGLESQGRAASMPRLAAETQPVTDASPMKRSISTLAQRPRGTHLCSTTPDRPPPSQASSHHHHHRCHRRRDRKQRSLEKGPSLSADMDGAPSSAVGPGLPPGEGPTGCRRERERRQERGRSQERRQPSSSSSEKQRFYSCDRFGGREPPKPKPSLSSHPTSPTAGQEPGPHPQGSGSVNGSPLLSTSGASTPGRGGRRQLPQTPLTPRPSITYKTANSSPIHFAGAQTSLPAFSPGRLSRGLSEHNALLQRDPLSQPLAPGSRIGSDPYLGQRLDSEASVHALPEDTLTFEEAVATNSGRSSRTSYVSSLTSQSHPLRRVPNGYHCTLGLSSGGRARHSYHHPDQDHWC
T5 sequence (Q02410 whole entry): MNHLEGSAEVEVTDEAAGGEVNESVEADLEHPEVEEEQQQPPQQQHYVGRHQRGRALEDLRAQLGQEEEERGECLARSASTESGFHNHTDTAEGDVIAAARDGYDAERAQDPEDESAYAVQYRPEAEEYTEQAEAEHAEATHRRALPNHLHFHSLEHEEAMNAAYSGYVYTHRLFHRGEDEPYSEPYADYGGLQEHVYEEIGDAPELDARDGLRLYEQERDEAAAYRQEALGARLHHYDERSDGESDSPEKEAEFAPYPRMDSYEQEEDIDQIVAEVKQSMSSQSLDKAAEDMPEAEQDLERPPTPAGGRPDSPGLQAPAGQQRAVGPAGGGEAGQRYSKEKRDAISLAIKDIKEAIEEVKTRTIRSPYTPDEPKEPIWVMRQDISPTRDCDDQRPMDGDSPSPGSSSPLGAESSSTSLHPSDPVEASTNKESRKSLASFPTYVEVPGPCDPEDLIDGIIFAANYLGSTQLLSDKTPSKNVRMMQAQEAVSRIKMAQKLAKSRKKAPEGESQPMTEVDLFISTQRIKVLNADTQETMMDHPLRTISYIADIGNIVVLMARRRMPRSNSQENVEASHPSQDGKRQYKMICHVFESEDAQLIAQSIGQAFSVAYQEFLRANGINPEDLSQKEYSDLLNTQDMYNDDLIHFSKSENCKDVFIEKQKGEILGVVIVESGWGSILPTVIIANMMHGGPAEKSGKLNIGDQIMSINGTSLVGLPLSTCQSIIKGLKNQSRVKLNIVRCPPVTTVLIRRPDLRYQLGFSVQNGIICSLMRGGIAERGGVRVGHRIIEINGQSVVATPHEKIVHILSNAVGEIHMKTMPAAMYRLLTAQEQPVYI
Beta-2 adrenergic receptor, sequence (P07550 whole entry): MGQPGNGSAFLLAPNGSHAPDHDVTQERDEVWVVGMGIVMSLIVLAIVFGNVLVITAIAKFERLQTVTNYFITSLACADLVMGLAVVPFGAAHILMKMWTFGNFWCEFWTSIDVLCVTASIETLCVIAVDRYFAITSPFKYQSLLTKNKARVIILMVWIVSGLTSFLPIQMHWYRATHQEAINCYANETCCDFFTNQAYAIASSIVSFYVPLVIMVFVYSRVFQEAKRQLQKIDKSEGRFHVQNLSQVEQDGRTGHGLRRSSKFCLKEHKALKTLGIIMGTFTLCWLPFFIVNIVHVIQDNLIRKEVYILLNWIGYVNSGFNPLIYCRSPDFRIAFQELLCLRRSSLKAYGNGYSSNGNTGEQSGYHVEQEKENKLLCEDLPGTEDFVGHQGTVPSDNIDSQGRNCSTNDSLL

CCOc1ccc(NC(=O)CNC(=O)c2nn(-c3ccc(OC)c(OC)c3)c(=O)c3ccccc23)cc1
EC50 [1]: 6.57 µM (active)

COc1cc(/C=C2\SC(Nc3ccccc3)=NC2=O)cc(Cl)c1O
AC50 [2]: 7.03 µM (active) | CC50 [3]: 100 µM (active) | IC50 [4]: 55.7 µM (active)

O=C(Nc1cccnc1)c1ccc(N2CCCC2)c([N+](=O)[O-])c1
AC50 [5]: 1.19 µM (active)

CCc1nc(Nc2ccc(O)cc2)c2oc3ccccc3c2n1
CC50 [3]: 87.6 µM (active) | IC50 [4]: 18.2 µM (active)

COc1ccc(NC(=O)N(C)C[C@H]2Oc3ccc(NC(=O)c4ccncc4)cc3C(=O)N([C@H](C)CO)C[C@@H]2C)cc1
IC50 [6]: 27.8 µM (active) | IC50 [7]: 40.4 µM (active)

Cc1cc(N(CCCl)CCCl)ccc1C=NNC(=O)Cc1cc(=O)oc2cc(O)ccc12
IC50 [6]: 8.75 µM (active) | IC50 [7]: 28.7 µM (active)

COc1cc2c3cc1Oc1cc(ccc1O)C[C@@H]1c4c(cc(OC)c(O)c4Oc4cccc(c4)C[C@@H]3N(C)CC2)CC[N+]1(C)C
AC50 [5]: 15.4 µM (active) | AC50 [8]: 8.2 µM (active)

Cn1c2ccccc2c2cc(/C=N/NC(=O)c3cc(O)ccc3O)ccc21
IC50 [9]: 15.2 µM (active) | IC50 [10]: 4.94 µM (active) | IC50 (H9c2): > 79 µM (inactive) | IC50 [6]: 18 µM (active) | IC50 [7]: 37.3 µM (active) | AC50 (Caspase-6): 43.1 µM (active)

CN(C)C(=O)C[C@@H]1C[C@@H]2c3cc(NC(=O)c4cccnc4)ccc3O[C@@H]2[C@@H](CO)O1
AC50 [5]: 12.7 µM (active)

CCC(=O)N1CC[C@@H]2[C@H]1c1cc(-c3cccc(F)c3)ccc1N(C)[C@H]2CO
AC50 [5]: 5.53 µM (active)

CCCCS(=O)(=O)N1CCN(C(=O)C(=O)c2cccc(C(F)(F)F)c2)CC1
AC50 [11]: 49.5 µM (active)

CCOc1ccccc1N/C=C1\C(=O)OC(=O)c2ccccc21
IC50 [12]: > 100 µM (inactive) | IC50 [13]: > 100 µM (inactive)

CCCCc1ccc(NC(=O)c2cc(=O)c(OC)c[nH]2)cc1
IC50 [12]: > 100 µM (inactive) | IC50 [13]: > 100 µM (inactive)

COc1ccc2oc(=O)c(Br)cc2c1
IC50 [12]: 80.2 µM (inactive) | IC50 [13]: > 100 µM (inactive)

O=C1OC(=O)/C(=C\NC23CC4CC(CC(C4)C2)C3)C=C1Br
IC50 [12]: 12.9 µM (inactive) | IC50 [13]: 2.6 µM (active)

C/N=C1/S/C(=C\c2ccc(O)c(Br)c2)C(=O)N1C
AC50 [2]: 0.194 µM (active) | CC50 [3]: 74.9 µM (active) | IC50 [4]: 42 µM (active)

COc1ccc2c3c(n(C)c2c1)[C@@H](CO)N(C(=O)C1CC1)CC31CN(C(=O)Nc2cccc(F)c2)C1
AC50 [14]: 0.209 µM (active) | AC50 [15]: 0.692 µM (active) | AC50 [16]: 0.196 µM (active) | AC50 [17]: 0.164 µM (active)

COc1ccc2c3c([nH]c2c1)[C@H](CO)N(S(=O)(=O)c1ccc(C)cc1)CC31CCN(C(=O)Cc2cccnc2)CC1
AC50 [14]: 0.54 µM (active) | AC50 [15]: 1.19 µM (active) | AC50 [16]: 0.332 µM (active) | AC50 [18]: > 39 µM (inactive) | AC50 [17]: 0.265 µM (active)

CN1C(=O)c2cc(NC(=O)c3ccc4c(c3)OCO4)ccc2OC[C@@H]2O[C@@H](CC(=O)O)CC[C@@H]21
AC50 [18]: 38.5 µM (active)

COc1ccccc1-c1ccc2c(c1)[C@H]1[C@H](CCN1C(=O)C1CCC1)[C@H](CO)N2
AC50 [15]: 5.25 µM (active) | AC50 [18]: 30.5 µM (active)

Cc1ccc(Nc2nc(N)c3ccccc3n2)cc1C
EC50 [19]: 7.32 µM (active) | IC50 (cells [20]): > 29.9 µM (inactive) | EC50 [21]: 4.53 µM (active) | IC50 [22]: 8.34 µM (active) | EC50 (cells [23]): > 29.9 µM (inactive) | AC50 [24]: 34 µM (active) | AC50 [25]: 2.36 µM (active) | AC50 [26]: 2.9 µM (active) | AC50 [27]: 5 µM (active)
